In PMC10518257 (Nature Cancer, 2023):
Values joined by “and” are separate entries in the source; they are usually repeats but may differ in a detail not shown here. Identical values can stand only once. Like-named read-outs stand apart in the source and are kept apart here.

Assay: Pharmacokinetic analysis of vepafestinib in rats (microdialysis PFC, CSF, plasma)
Format: in vivo, male Han Wistar rats

Q: Which “Concentration in Rats, Plasma (free fraction)” value (shortened to “Concentration … (free fraction)”) (3 mg/kg, 30 min, individual rats) does the source give for `COCc1ccc(NC(=O)c2c(C#CCN3CCOCC3)n(C3(C)CC3)c3ncnc(N)c23)cc1` [Vepafestinib, 4-amino-N-[4-(methoxymethyl)phenyl]-7-(1-methylcyclopropyl)-6-[3-(morpholin-4-yl)prop-1-yn-1-yl]-7H-pyrrolo[2,3-d]pyrimidine-5-carboxamide] here?
A: 411 nM and 290 nM and 384 nM and 193 nM

Q: What about the “Concentration … (free fraction)” value (3 mg/kg, 60 min, individual rats) of the same compound?
A: 248 nM and 212 nM and 391 nM and 168 nM

Q: And the concentration at 480 min (3 mg/kg, 60 min, individual rats, read-out: Concentration in Rats, Cerebrospinal fluid)?
A: 109 nM

Q: And the concentration at 120 min (3 mg/kg, 60 min, individual rats, read-out: Concentration in Rats, Plasma (total))?
A: 1620 nM and 1390 nM and 2560 nM and 1100 nM

Q: What about the “Concentration … (free fraction)” value (3 mg/kg, 120 min, individual rats) of the same compound?
A: 129 nM and 143 nM and 163 nM and 115 nM

Q: And the “Concentration … (free fraction)” value (3 mg/kg, 180 min, individual rats)?
A: 68 nM and 120 nM and 97.8 nM and 63 nM

Q: What about the “Concentration … (free fraction)” value (3 mg/kg, 300 min, individual rats) of the same compound?
A: 17.3 nM and 28.1 nM and 50.7 nM and 32.7 nM

Q: What about the “Concentration … (free fraction)” value (3 mg/kg, 360 min, individual rats) of the same compound?
A: 8.57 nM and 13.7 nM and 36.5 nM

Q: And the “Concentration … (free fraction)” value (3 mg/kg, 480 min, individual rats)?
A: 24.3 nM

Q: What about the “Concentration … (free fraction)” value (10 mg/kg, 30 min, individual rats) of the same compound?
A: 1323 nM and 1543 nM and 1071 nM and 1204 nM

Q: What about the “Concentration … (free fraction)” value (10 mg/kg, 60 min, individual rats) of the same compound?
A: 1016 nM and 1083 nM and 660 nM and 921 nM

Q: And the “Concentration … (free fraction)” value (10 mg/kg, 120 min, individual rats)?
A: 503 nM and 680 nM and 665 nM and 714 nM

Q: And the “Concentration … (free fraction)” value (10 mg/kg, 180 min, individual rats)?
A: 272 nM and 513 nM and 529 nM and 374 nM

Q: What about the “Concentration … (free fraction)” value (10 mg/kg, 240 min, individual rats) of the same compound?
A: 133 nM and 237 nM and 243 nM and 244 nM

Q: What about the “Concentration … (free fraction)” value (10 mg/kg, 300 min, individual rats) of the same compound?
A: 53.6 nM and 90.5 nM and 129 nM and 102 nM

Q: What about the “Concentration … (free fraction)” value (10 mg/kg, 360 min, individual rats) of the same compound?
A: 30.4 nM and 53.8 nM and 63.3 nM and 53.6 nM

Q: What about the “Concentration … (free fraction)” value (10 mg/kg, 480 min, individual rats) of the same compound?
A: 15.6 nM and 25.5 nM and 17.7 nM

Q: And the “Concentration … (free fraction)” value (50 mg/kg, 30 min, individual rats)?
A: 2310 nM and 2399 nM and 2002 nM and 1803 nM

Q: And the “Concentration … (free fraction)” value (50 mg/kg, 60 min, individual rats)?
A: 1589 nM and 1818 nM and 1742 nM and 1803 nM

Q: What about the “Concentration … (free fraction)” value (50 mg/kg, 120 min, individual rats) of the same compound?
A: 1415 nM and 2506 nM and 1273 nM and 2017 nM

Q: And the “Concentration … (free fraction)” value (50 mg/kg, 180 min, individual rats)?
A: 947 nM and 2200 nM and 964 nM and 1305 nM

Q: And the “Concentration … (free fraction)” value (50 mg/kg, 240 min, individual rats)?
A: 591 nM and 2093 nM and 1166 nM and 1108 nM

Q: What about the “Concentration … (free fraction)” value (50 mg/kg, 300 min, individual rats) of the same compound?
A: 740 nM and 1435 nM and 817 nM and 694 nM

Q: And the “Concentration … (free fraction)” value (50 mg/kg, 360 min, individual rats)?
A: 891 nM and 1181 nM and 821 nM and 400 nM

Q: What about the “Concentration … (free fraction)” value (50 mg/kg, 480 min, individual rats) of the same compound?
A: 20.5 nM and 680 nM and 743 nM and 651 nM

Q: And the concentration at 120 min (male, Han Wistar, rat, cerebrospinal fluid, oral, 3 mg/kg, 120 min, individual rats, read-out: Concentration in Rats, Cerebrospinal fluid)?
A: 67.4 nM

Q: And the concentration at 240 min (male, Han Wistar, rat, cerebrospinal fluid, oral, 3 mg/kg, 240 min, individual rats, read-out: Concentration in Rats, Cerebrospinal fluid)?
A: 28.8 nM

Q: What about the concentration at 480 min (male, Han Wistar, rat, cerebrospinal fluid, oral, 3 mg/kg, 480 min, individual rats, read-out: Concentration in Rats, Cerebrospinal fluid) of the same compound?
A: 8.78 nM

Q: And the concentration at 30 min (male, Han Wistar, rat, cerebrospinal fluid, oral, 10 mg/kg, 30 min, individual rats, read-out: Concentration in Rats, Cerebrospinal fluid)?
A: 961 nM

Q: What about the concentration at 120 min (male, Han Wistar, rat, cerebrospinal fluid, oral, 10 mg/kg, 120 min, individual rats, read-out: Concentration in Rats, Cerebrospinal fluid) of the same compound?
A: 585 nM

Q: And the concentration at 480 min (male, Han Wistar, rat, cerebrospinal fluid, oral, 50 mg/kg, rats, 50 mg/kg, 480 min, individual animals, read-out: Concentration in Cerebrospinal fluid)?
A: 430 nM

Q: And the concentration at 480 min (male, Han Wistar, rat, cerebrospinal fluid, oral, 50 mg/kg, 480 min, individual rats, read-out: Concentration in Rats, Cerebrospinal fluid)?
A: 486 nM

Q: And the concentration at 120 min (male, Han Wistar, rat, plasma (total), oral, 3 mg/kg, 120 min, individual rats, read-out: Concentration in Rats, Plasma (total))?
A: 845 nM

Q: And the concentration at 180 min (male, Han Wistar, rat, plasma (total), oral, 3 mg/kg, 180 min, individual rats, read-out: Concentration in Rats, Plasma (total))?
A: 445 nM

Q: And the concentration at 480 min (male, Han Wistar, rat, plasma (total), oral, 3 mg/kg, 480 min, individual rats, read-out: Concentration in Rats, Plasma (total))?
A: 159 nM

Q: What about the concentration at 30 min (male, Han Wistar, rat, plasma (total), oral, 10 mg/kg, 30 min, individual rats, read-out: Concentration in Rats, Plasma (total)) of the same compound?
A: 8660 nM

Q: What about the concentration at 60 min (male, Han Wistar, rat, plasma (total), oral, 10 mg/kg, 60 min, individual rats, read-out: Concentration in Rats, Plasma (total)) of the same compound?
A: 6650 nM

Q: What about the concentration at 120 min (male, Han Wistar, rat, plasma (total), oral, 10 mg/kg, 120 min, individual rats, read-out: Concentration in Rats, Plasma (total)) of the same compound?
A: 3290 nM

Q: What about the concentration at 180 min (male, Han Wistar, rat, plasma (total), oral, 10 mg/kg, 180 min, individual rats, read-out: Concentration in Rats, Plasma (total)) of the same compound?
A: 1780 nM

Q: What about the concentration at 240 min (male, Han Wistar, rat, plasma (total), oral, 10 mg/kg, 240 min, individual rats, read-out: Concentration in Rats, Plasma (total)) of the same compound?
A: 872 nM

Q: And the concentration at 480 min (male, Han Wistar, rat, plasma (total), oral, 10 mg/kg, 480 min, individual rats, read-out: Concentration in Rats, Plasma (total))?
A: 102 nM

Q: And the concentration at 120 min (male, Han Wistar, rat, plasma (total), oral, 50 mg/kg, rats, 50 mg/kg, 120 min, individual animals, read-out: Concentration in Plasma (total))?
A: 9260 nM

Q: And the concentration at 30 min (male, Han Wistar, rat, plasma (total), oral, 50 mg/kg, 30 min, individual rats, read-out: Concentration in Rats, Plasma (total))?
A: 15100 nM

Q: What about the concentration at 60 min (male, Han Wistar, rat, plasma (total), oral, 50 mg/kg, 60 min, individual rats, read-out: Concentration in Rats, Plasma (total)) of the same compound?
A: 10400 nM

Q: And the concentration at 120 min (male, Han Wistar, rat, plasma (total), oral, 50 mg/kg, 120 min, individual rats, read-out: Concentration in Rats, Plasma (total))?
A: 9260 nM

Q: What about the concentration at 30 min (male, Han Wistar, rat, plasma, oral, 50 mg/kg, rats, 50 mg/kg, 30 min, individual animals, read-out: Concentration in Plasma (total)) of the same compound?
A: 15100 nM

Q: What about the concentration at 60 min (male, Han Wistar, rat, plasma, oral, 50 mg/kg, rats, 50 mg/kg, 60 min, individual animals, read-out: Concentration in Plasma (total)) of the same compound?
A: 10400 nM

Q: What about the concentration at 30 min (male, Han Wistar, rat, prefrontal cortex microdialysate, oral, 3 mg/kg, 30 min, individual rats, read-out: Concentration in Rats, Prefrontal cortex) of the same compound?
A: 7.04 nM

Q: And the concentration at 90 min (male, Han Wistar, rat, prefrontal cortex microdialysate, oral, 3 mg/kg, 90 min, individual rats)?
A: 102 nM

Q: What about the concentration at 120 min (male, Han Wistar, rat, prefrontal cortex microdialysate, oral, 3 mg/kg, 120 min, individual rats, read-out: Concentration in Rats, Prefrontal cortex) of the same compound?
A: 129 nM
